The source of these data is US20150231045A1, “ANTI-DANDRUFF COMPOSITION COMPRISING 1-ACETOXYCHAVICOL ACETATE” (AnalytiCon Discovery GmbH, priority 2012, published 2015).

Assay [1] has as its system Malassezia sympodialis ATCC 42132. Put plainly: Classic assay for susceptibility testing of planktonically growing cells (OD580). The format is cell-based, Malassezia sympodialis (former M. furfur). The settings on record: for inhibition at 12.5 µg/mL: read-out: Classic Assay, planktonic growth, inhibition. On the procedure:
Routine cultivation of M. sympodialis: M. sympodialis (former M. furfur) CBS 1878 was obtained from the Centraalbureau voor Schimmelcultures Fungal Biodiversity Centre. It was routinely grown on Dixon-agar plates in a humid atmosphere (“wet box”) at 33° C., or in Sabouraud-Maltose (SM) broth complemented with Tween80 and Glycerin-monostearate for liquid cultures in shake-flasks (300 ml operated with 50 ml medium) with agitation (150 rpm).
(§1) General Assay Conditions • 1. Strain: Malassezia sympodialis ATCC 42132 • 2. Growth conditions: • Sabouraud-medium supplemented with dextrose (20 g/l), Tween 80 (1%) and glycerol-monostearat (emulsifier; 0.05%). Static incubation in flat-bottom 96-well microtiterplates (total volume 340 μl, working volume 200 μl; surface area 148 mm2). Incubation at 33° C. in humid atmosphere (wet-box) to avoid dessication. Incubation periods vary according to the assay format. Suspensions used for inoculation were adjusted to an optical density (OD580) of 0.1 • 3. […] Controls • Sterile media was used as negative control; cells cultivated in absence of any test compound but in presence of equal amounts of DMSO compared to samples (see below) were regarded as positive control (unrestricted growth) • 5. All compounds (test-samples and references) are dissolved in DMSO. […] Unless otherwise stated, test compound concentration was 12.5 μg/ml
Routine susceptibility testing of M. sympodialis in high throughput format was done by simultaneous addition of test compounds and inoculum. Seven days after inoculation and when planktonic growth of the untreated control ceased, the effect of the test compounds was evaluated by comparison of the turbidity (optical density, OD580) of treated and untreated samples (control; 100%).
The classic assay is the platform to determine dose-response relationships, where serial dilutions of compounds are evaluated. For description of these relationships, values for the minimal effective concentration and the concentration effective in reducing cell proliferation by 50% (IC50) are generated.

Assay [2] has the same test system. Put plainly: Mid-log assay (compound added at half-maximum OD580). The settings on record: Example 7; for inhibition at 12.5 µg/mL: Malassezia sympodialis, ATCC42132, read-out: Mid-log Assay %-inhibition compared to benchmark. The format is cell-based, Malassezia sympodialis (former M. furfur). On the procedure: Cells are cultivated to half-maximal OD580 before test compounds are added (arrow). Value of OD580 at time of sample application is set 100%. […] Blue diamonds, untreated control cells; pink rectangles, cells treated with test compounds.
as §1
For the so called “mid-log assay”, cells are grown to half-maximum optical density before test compounds are added. […] Numbers for OD580 of untreated control samples and samples treated with test compounds are compared to t0-value, which is defined as the 100% level. The value for OD580 of the untreated control sample in stationary phase (end of experiment) is defined as the “control-level” (for unrestricted growth). Values for control-levels are solely dependent on t0-values and therefore vary with each experiment; thus, they cannot be standardised.
Exponentially growing cells (mid-log) are in a defined active state with respect to proliferation and metabolic activity. […] Moreover, the mode of inhibition caused by the test compound can be determined (see above).

Setting [3] is: Malassezia sympodialis, ATCC42132, Example 7, 12.5 μg/ml unless otherwise stated.
The mark [4] stands for this setting: 12.5 μg/ml unless otherwise stated.

Values after ≈ are worked out from the molar mass of the structure shown.

As for `C=CC(OC(C)=O)c1ccc(OC(C)=O)cc1` (stereo not drawn) [1-acetoxychavicol, 1-acetoxychavicol acetate], the inhibition at 12.5 µg/mL in assay [1] (setting [3]) was determined as 61%; in assay [2] (setting [4]) it was 11%. Moreover, the “Mid-log Assay Level-%” value in assay [2] (OD580 at addition = 100%, Control-level 399) is listed as 379%.
With `CC(C)(C)C(=O)C(Oc1ccc(Cl)cc1)n1ccnc1` (stereo not drawn) [Crinipan, climbazole], the values for the inhibition at 12.5 µg/mL in assay [1] (setting [3]) and in assay [2] (setting [4]) were 93% and 66%, respectively. In addition, the IC50 in assay [1] (Malassezia sympodialis, ATCC42132, serial dilutions, classic assay, read-out: IC50 (concentration reducing cell proliferation by 50%), planktonic growth) amounted to 0.2 µg/mL (≈ 0.683 µM).
As to Zinc Pyrithione, in assay [1] (Example 7, 12.5 μg/ml unless otherwise stated), the “Classic Assay, planktonic growth, inhibition” value was found to be 73% inhibition. Also, in assay [1] (serial dilutions, classic assay), the “IC50 (concentration reducing cell proliferation by 50%), planktonic growth” value is 12.4 µg/mL. Also, the “Mid-log Assay %-inhibition compared to benchmark” value in assay [2] (setting [4]) was determined as 16%.

Broadly, the inhibition is the change of the read-out against control, counted positive when it falls.
